From ChEMBL document CHEMBL1177794, “Broad spectrum alkynyl inhibitors of T315I Bcr-Abl” (Bioorg Med Chem Lett, 2010)

Legend:
[1] = target: Aurora kinase B (Homo sapiens) (UniProt Q96GD4); assay: Inhibition of AURKB at 10 uM; conditions: values are per cent of control
[2] = system: Mast/stem cell growth factor receptor Kit (Homo sapiens), P10721 [V559D]; assay: Inhibition of KIT V559D mutant at 10 uM; conditions: values are per cent of control
[3] = target: Serine/threonine-protein kinase RIO1 (Homo sapiens) (UniProt Q9BRS2); assay: Inhibition of RIOK1 at 10 uM
[4] = target: Serine/threonine-protein kinase MAK (Homo sapiens) (UniProt P20794); assay: Inhibition of MAK at 10 uM; conditions: values are per cent of control
[5] = target: Serine/threonine-protein kinase mTOR (Homo sapiens) (UniProt P42345); assay: Inhibition of MTOR at 10 uM; values are per cent of control
[6] = target: Serine/threonine-protein kinase 24 (Homo sapiens) (UniProt Q9Y6E0); assay: Inhibition of MST3 at 10 uM
Serine/threonine-protein kinase 24 (Homo sapiens), sequence (Q9Y6E0 whole entry, looked up, the tested form may be a part): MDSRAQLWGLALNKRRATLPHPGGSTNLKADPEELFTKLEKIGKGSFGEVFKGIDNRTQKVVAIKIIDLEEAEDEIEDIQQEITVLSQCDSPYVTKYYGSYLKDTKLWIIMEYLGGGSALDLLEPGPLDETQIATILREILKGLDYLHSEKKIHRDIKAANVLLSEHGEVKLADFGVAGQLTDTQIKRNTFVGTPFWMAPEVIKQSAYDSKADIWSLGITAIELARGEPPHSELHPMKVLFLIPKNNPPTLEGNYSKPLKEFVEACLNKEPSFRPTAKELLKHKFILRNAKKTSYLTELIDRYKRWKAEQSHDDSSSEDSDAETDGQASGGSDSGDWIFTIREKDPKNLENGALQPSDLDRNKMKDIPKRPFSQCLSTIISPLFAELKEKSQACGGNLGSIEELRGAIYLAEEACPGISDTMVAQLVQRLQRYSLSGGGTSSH

[7] = target: Epithelial discoidin domain-containing receptor 1 (Homo sapiens) (UniProt Q08345); assay: Inhibition of DDR1 at 10 uM; values are per cent of control
[8] = target: Dual specificity protein kinase CLK2 (Homo sapiens) (UniProt P49760); assay: Inhibition of CLK2 at 10 uM; conditions: values are per cent of control
Dual specificity protein kinase CLK2 (Homo sapiens), sequence (P49760 whole entry, looked up): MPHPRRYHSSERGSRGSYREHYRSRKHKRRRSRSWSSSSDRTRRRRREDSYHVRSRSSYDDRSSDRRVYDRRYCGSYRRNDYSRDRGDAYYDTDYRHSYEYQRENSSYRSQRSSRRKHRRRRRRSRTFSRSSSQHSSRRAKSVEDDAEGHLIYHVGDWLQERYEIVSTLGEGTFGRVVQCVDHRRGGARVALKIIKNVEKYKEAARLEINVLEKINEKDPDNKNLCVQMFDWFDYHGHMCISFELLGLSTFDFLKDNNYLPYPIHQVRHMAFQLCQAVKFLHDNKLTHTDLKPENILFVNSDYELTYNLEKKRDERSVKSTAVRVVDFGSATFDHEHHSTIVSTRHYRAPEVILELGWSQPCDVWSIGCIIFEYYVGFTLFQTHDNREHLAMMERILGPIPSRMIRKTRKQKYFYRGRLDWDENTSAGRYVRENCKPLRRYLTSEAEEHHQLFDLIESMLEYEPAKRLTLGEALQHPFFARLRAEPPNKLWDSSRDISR

[9] = target: RAC-alpha serine/threonine-protein kinase (Homo sapiens) (UniProt P31749); assay: Inhibition of AKT1 at 10 uM; conditions: values are per cent of control
[10] = target: Serine/threonine-protein kinase ULK1 (Homo sapiens) (UniProt O75385); assay: Inhibition of ULK1 at 10 uM; conditions: values are per cent of control
Serine/threonine-protein kinase ULK1 (Homo sapiens), sequence (O75385 whole entry): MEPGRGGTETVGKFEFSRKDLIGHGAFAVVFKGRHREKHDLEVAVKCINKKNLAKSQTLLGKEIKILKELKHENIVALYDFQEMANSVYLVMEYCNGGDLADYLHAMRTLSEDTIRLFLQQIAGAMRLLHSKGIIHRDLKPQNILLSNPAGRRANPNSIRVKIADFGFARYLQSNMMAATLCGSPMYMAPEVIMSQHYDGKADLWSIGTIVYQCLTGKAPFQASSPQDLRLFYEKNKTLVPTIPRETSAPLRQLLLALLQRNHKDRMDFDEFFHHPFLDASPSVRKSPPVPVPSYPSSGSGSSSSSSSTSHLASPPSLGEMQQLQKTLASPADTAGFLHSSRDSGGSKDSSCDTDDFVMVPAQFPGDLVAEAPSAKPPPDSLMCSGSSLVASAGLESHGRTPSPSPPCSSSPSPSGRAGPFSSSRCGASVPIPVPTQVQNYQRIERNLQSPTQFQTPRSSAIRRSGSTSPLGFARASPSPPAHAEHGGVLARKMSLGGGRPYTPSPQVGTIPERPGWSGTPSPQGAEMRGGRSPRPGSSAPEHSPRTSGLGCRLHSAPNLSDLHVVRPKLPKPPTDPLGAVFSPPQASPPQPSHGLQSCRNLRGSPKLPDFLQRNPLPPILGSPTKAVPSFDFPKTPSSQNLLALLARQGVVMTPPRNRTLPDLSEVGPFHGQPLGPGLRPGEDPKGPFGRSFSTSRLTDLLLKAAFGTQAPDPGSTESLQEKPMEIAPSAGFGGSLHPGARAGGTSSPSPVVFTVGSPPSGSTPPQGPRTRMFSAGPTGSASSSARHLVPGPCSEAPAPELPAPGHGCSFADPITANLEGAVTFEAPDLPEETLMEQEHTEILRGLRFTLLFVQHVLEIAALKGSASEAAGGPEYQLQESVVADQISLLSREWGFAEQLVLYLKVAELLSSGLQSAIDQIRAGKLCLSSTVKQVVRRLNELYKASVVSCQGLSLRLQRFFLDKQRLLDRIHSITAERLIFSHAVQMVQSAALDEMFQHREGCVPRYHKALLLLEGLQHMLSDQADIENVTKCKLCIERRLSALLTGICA

[11] = system: Epidermal growth factor receptor (Homo sapiens), P00533 [L861Q]; assay: Inhibition of EGFR L861Q mutant at 10 uM; values are per cent of control
[12] = target: Serine/threonine-protein kinase DCLK1 (Homo sapiens) (UniProt O15075); assay: Inhibition of DCAMKL1 at 10 uM; values are per cent of control
[13] = target: Tyrosine-protein kinase Srms (Homo sapiens) (UniProt Q9H3Y6); assay: Inhibition of SRMS at 10 uM
[14] = target: Tyrosine-protein kinase Fer (Homo sapiens) (UniProt P16591); assay: Inhibition of FER at 10 uM; conditions: values are per cent of control
[15] = target: Phosphatidylinositol 5-phosphate 4-kinase type-2 gamma (Homo sapiens) (UniProt Q8TBX8); assay: Inhibition of PIP5K2C at 10 uM
[16] = target: Serine/threonine-protein kinase 3 (Homo sapiens) (UniProt Q13188); assay: Inhibition of MST2 at 10 uM
[17] = target: Eukaryotic translation initiation factor 2-alpha kinase 1 (Homo sapiens) (UniProt Q9BQI3); assay: Inhibition of EIF2AK1 at 10 uM; conditions: values are per cent of control
[18] = target: BMP-2-inducible protein kinase (Homo sapiens) (UniProt Q9NSY1); assay: Inhibition of BIKE at 10 uM; conditions: values are per cent of control
[19] = target: RAC-beta serine/threonine-protein kinase (Homo sapiens) (UniProt P31751); assay: Inhibition of AKT2 at 10 uM; conditions: values are per cent of control
[20] = target: Serine/threonine-protein kinase PLK2 (Homo sapiens) (UniProt Q9NYY3); assay: Inhibition of PLK2 at 10 uM; conditions: values are per cent of control
[21] = target: Glycogen synthase kinase-3 beta (Homo sapiens) (UniProt P49841); assay: Inhibition of GSK3B at 10 uM; conditions: values are per cent of control
[22] = target: Calcium/calmodulin-dependent protein kinase type II subunit delta (Homo sapiens) (UniProt Q13557); assay: Inhibition of CAMK2D at 10 uM; conditions: values are per cent of control
[23] = target: Cyclin-dependent kinase 2 (Homo sapiens) (UniProt P24941); assay: Inhibition of CDK2 at 10 uM; values are per cent of control
[24] = target: SRSF protein kinase 1 (Homo sapiens) (UniProt Q96SB4); assay: Inhibition of SRPK1 at 10 uM
[25] = target: Interleukin-1 receptor-associated kinase 4 (Homo sapiens) (UniProt Q9NWZ3); assay: Inhibition of IRAK4 at 10 uM; values are per cent of control
[26] = target: Casein kinase I isoform epsilon (Homo sapiens) (UniProt P49674); assay: Inhibition of CSNK1E at 10 uM; values are per cent of control
Casein kinase I isoform epsilon (Homo sapiens), sequence (P49674 whole entry, looked up, canonical isoform): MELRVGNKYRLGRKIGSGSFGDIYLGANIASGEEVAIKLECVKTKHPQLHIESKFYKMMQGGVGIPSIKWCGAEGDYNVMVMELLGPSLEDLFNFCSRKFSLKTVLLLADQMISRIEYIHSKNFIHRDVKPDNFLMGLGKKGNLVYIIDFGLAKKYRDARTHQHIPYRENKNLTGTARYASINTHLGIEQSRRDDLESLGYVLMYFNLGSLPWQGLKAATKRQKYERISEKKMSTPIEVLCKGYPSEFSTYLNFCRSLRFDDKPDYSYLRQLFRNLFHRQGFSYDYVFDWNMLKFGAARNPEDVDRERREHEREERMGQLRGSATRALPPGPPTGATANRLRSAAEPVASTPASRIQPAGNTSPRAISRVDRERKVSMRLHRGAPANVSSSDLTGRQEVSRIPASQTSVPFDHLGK

[27] = system: Mast/stem cell growth factor receptor Kit (Homo sapiens), P10721 [D816V]; assay: Inhibition of KIT D816V mutant at 10 uM; conditions: values are per cent of control
Mast/stem cell growth factor receptor Kit (Homo sapiens), P10721 [D816V], sequence (P10721 whole entry D816V): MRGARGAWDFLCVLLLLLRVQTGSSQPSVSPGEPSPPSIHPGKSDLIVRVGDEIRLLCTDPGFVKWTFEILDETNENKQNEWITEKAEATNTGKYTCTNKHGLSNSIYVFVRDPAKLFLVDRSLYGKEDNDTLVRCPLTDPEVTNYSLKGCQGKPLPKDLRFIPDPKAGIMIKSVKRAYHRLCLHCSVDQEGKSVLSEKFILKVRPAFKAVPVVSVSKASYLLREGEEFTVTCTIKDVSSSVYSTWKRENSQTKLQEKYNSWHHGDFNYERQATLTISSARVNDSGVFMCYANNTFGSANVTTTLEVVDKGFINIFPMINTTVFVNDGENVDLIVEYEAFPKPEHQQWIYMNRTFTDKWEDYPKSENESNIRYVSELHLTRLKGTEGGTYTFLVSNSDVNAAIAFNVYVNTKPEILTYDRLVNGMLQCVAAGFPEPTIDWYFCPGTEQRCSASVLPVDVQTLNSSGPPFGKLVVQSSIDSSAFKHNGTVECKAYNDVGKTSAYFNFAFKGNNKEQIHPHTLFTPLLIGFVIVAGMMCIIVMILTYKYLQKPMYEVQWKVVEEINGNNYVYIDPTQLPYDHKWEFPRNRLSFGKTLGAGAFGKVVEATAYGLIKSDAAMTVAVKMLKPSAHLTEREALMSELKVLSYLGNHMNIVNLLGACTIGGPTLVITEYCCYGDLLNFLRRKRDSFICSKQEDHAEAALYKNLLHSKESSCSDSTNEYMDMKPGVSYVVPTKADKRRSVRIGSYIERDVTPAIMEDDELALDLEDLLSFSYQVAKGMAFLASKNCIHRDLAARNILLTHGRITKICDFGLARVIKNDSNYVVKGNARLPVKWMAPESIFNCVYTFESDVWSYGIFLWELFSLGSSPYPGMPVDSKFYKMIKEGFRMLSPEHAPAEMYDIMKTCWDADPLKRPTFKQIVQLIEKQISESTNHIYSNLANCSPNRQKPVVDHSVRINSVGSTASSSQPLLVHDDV

[28] = target: Mitogen-activated protein kinase 14 (Homo sapiens) (UniProt Q16539); assay: Inhibition of p38alpha at 10 uM; values are per cent of control
[29] = target: Proto-oncogene tyrosine-protein kinase receptor Ret (Homo sapiens) (UniProt P07949); assay: Inhibition of RET at 10 uM; values are per cent of control
[30] = target: Myotonin-protein kinase (Homo sapiens) (UniProt Q09013); assay: Inhibition of DMPK at 10 uM; conditions: values are per cent of control
[31] = target: TGF-beta receptor type-1 (Homo sapiens) (UniProt P36897); assay: Inhibition of TGFBR1 at 10 uM
[32] = target: Cyclin-dependent kinase 11B (Homo sapiens) (UniProt P21127); assay: Inhibition of CDC2L1 at 10 uM; values are per cent of control
[33] = target: Tyrosine-protein kinase JAK1 (Homo sapiens) (UniProt P23458); assay: Inhibition of JAK1 JH1 catalytic domain at 10 uM; values are per cent of control
Tyrosine-protein kinase JAK1 (Homo sapiens), sequence (P23458 whole entry, the tested form may be a part): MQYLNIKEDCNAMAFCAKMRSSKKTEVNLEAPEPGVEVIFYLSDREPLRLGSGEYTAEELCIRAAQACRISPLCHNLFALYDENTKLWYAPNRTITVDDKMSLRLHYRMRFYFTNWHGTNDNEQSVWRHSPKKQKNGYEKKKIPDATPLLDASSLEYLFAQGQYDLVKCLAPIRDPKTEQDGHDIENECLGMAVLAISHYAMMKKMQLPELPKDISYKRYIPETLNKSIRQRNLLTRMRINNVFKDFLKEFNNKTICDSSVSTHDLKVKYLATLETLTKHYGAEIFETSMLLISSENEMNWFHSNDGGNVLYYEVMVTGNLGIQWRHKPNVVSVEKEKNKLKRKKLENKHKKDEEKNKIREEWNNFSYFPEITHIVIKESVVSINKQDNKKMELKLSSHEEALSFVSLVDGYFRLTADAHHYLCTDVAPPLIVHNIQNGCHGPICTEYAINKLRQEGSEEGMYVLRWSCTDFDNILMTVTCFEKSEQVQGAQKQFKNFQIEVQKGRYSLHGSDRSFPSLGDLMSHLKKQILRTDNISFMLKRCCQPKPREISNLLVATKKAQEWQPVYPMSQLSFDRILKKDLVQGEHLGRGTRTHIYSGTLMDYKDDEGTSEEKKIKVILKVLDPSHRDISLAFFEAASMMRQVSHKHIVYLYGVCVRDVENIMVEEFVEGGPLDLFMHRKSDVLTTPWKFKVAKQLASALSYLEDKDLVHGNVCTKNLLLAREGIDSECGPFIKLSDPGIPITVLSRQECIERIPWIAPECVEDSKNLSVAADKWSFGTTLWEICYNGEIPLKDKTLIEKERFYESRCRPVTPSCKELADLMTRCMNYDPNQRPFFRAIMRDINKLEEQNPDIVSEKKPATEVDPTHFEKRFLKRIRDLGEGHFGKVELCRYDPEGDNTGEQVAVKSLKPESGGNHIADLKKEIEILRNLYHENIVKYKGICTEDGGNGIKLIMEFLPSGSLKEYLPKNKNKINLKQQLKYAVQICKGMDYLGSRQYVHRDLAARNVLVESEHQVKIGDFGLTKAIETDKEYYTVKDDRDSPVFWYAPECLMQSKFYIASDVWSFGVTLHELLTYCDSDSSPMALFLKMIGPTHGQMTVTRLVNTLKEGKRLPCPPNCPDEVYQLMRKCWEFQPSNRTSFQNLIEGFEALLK

[34] = target: Serine/threonine-protein kinase PLK1 (Homo sapiens) (UniProt P53350); assay: Inhibition of PLK1 at 10 uM
[35] = target: ALK tyrosine kinase receptor (Homo sapiens) (UniProt Q9UM73); assay: Inhibition of ALK at 10 uM; values are per cent of control
[36] = target: Homeodomain-interacting protein kinase 1 (Homo sapiens) (UniProt Q86Z02); assay: Inhibition of HIPK1 at 10 uM; conditions: values are per cent of control
[37] = target: Serine/threonine-protein kinase PRP4 homolog (Homo sapiens) (UniProt Q13523); assay: Inhibition of PRP4 at 10 uM
[38] = target: Cyclin-dependent kinase 8 (Homo sapiens) (UniProt P49336); assay: Inhibition of CDK8 at 10 uM; values are per cent of control
[39] = target: Tyrosine-protein kinase JAK1 (Homo sapiens) (UniProt P23458); assay: Inhibition of JAK1 JH2 pseudokinase domain at 10 uM; values are per cent of control
[40] = target: Tyrosine-protein kinase FRK (Homo sapiens) (UniProt P42685); assay: Inhibition of FRK at 10 uM; conditions: values are per cent of control
[41] = target: Calcium/calmodulin-dependent protein kinase type 1 (Homo sapiens) (UniProt Q14012); assay: Inhibition of CAMK1 at 10 uM; conditions: values are per cent of control
Calcium/calmodulin-dependent protein kinase type 1 (Homo sapiens), sequence (Q14012 whole entry, looked up): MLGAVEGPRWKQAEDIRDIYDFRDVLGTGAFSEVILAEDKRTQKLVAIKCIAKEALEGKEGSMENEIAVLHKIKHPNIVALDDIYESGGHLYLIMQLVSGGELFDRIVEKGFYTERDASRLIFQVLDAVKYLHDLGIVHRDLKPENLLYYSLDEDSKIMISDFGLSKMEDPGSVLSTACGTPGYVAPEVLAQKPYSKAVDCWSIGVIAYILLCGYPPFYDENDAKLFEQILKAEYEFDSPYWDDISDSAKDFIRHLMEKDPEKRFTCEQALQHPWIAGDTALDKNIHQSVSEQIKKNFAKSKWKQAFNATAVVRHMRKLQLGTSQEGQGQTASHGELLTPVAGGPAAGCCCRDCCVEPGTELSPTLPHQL

Mast/stem cell growth factor receptor Kit (Homo sapiens), P10721 [V559D], sequence (P10721 whole entry V559D): as the sequence (P10721 whole entry D816V) above, with V559D, V816D counted along it

Work on `CCN1CCN(Cc2ccc(NC(=O)c3ccc(C)c(C#Cc4cnc5[nH]ccc5c4)c3)cc2C(F)(F)F)CC1` yielded a residual binding, % of control [1] of 4.6%, a residual binding, % of control [2] of 0% and an inhibition [3] of 53%. The residual binding, % of control [4] was 61%, the level, % of control [5] was 88% and the inhibition [6] was 3.6%. For the same molecule, the level, % of control [7] was 0%, the residual binding, % of control [8] was 100% and the residual binding, % of control [9] was 41%. The residual binding, % of control [10] was 38%, the level, % of control [11] was 0% and the level, % of control [12] was 100%. The inhibition [13] was 0.2%, the residual binding, % of control [14] was 2.6% and the inhibition [15] was 100%. For the same molecule, the inhibition [16] was 26%, the residual binding, % of control [17] was 72% and the residual binding, % of control [18] was 30%. For the same molecule, the residual binding, % of control [19] was 4.6%, the residual binding, % of control [20] was 100% and the residual binding, % of control [21] was 90%. It also gave a residual binding, % of control [22] of 100%, a level, % of control [23] of 13% and an inhibition [24] of 100%. The level, % of control [25] was 64%, the level, % of control [26] was 26% and the residual binding, % of control [27] was 0.65%. For the same molecule, the level, % of control [28] was 0%, the level, % of control [29] was 0% and the residual binding, % of control [30] was 27%. It also gave an inhibition [31] of 100%, a level, % of control [32] of 0% and a level, % of control [33] of 2.9%. For the same molecule, the inhibition [34] was 56%, the level, % of control [35] was 52% and the residual binding, % of control [36] was 48%. The inhibition [37] was 84%, the level, % of control [38] was 18% and the level, % of control [39] was 74%. The residual binding, % of control [40] was 0.15% and the residual binding, % of control [41] was 20%.

With `CCN1CCN(Cc2ccc(NC(=O)c3ccc(C)c(C#Cc4cccnc4)c3)cc2C(F)(F)F)CC1` the residual binding, % of control [1] was 24%, the residual binding, % of control [2] was 0% and the inhibition [3] was 90%. The residual binding, % of control [4] was 9%, the level, % of control [5] was 92% and the inhibition [6] was 2.8%. The level, % of control [7] was 0.05%, the residual binding, % of control [8] was 88% and the residual binding, % of control [9] was 81%. It also gave a residual binding, % of control [10] of 24%, a level, % of control [11] of 0.2% and a level, % of control [12] of 95%. For the same molecule, the inhibition [13] was 0%, the residual binding, % of control [14] was 11% and the inhibition [15] was 100%. For the same molecule, the inhibition [16] was 53%, the residual binding, % of control [17] was 83% and the residual binding, % of control [18] was 59%. It also gave a residual binding, % of control [19] of 30%, a residual binding, % of control [20] of 100% and a residual binding, % of control [21] of 99%. It also gave a residual binding, % of control [22] of 100%, a level, % of control [23] of 10% and an inhibition [24] of 100%. It also gave a level, % of control [25] of 72%, a level, % of control [26] of 48% and a residual binding, % of control [27] of 2%. It also gave a level, % of control [28] of 0%, a level, % of control [29] of 0% and a residual binding, % of control [30] of 100%. It also gave an inhibition [31] of 100%, a level, % of control [32] of 2.5% and a level, % of control [33] of 6.2%. The inhibition [34] was 58%, the level, % of control [35] was 23% and the residual binding, % of control [36] was 37%. The inhibition [37] was 54%, the level, % of control [38] was 8.2% and the level, % of control [39] was 90%. For the same molecule, the residual binding, % of control [40] was 0.15% and the residual binding, % of control [41] was 40%.
